Entries after “also recorded” stand apart in the source; their conditions may differ.
What was measured:
[1] = Elimination in urine of mice (UV analysis); format: in vivo; details: i.v., 1% solution, 0.4 ml
Experimental: (§1) The product A was at a concentration of 1% injected intraveneously in mice which each received a dose of 0.4 ml corresponding to 32×10^-4 g crown ether.

[2] = test system: mice; assay: Toxicity on intravenous injection in mice
Experimental: The content of free crown ether compound in this product was not analysed.
as §1
The product B was tested similarily but at a concentration of 10%. The dose was here 0.4 ml corresponding to 6.0×10^-3 g crown ether compound. The content of free crown ether compound in this dose amounted to 1.2×10^-4 g.
Two series of comparison tests were also made with the crown ether monomer.
In the first test benzo-18-crown-6 was injected as aqueous solution having a concentration of 0.8% at a dose of 0.4 ml per animal, corresponding to 32×10^-4 g crown ether.
In the ether comparison test benzo-18-crown-6 was used at a concentration of 0.08%. Also here the dose was 0.4 ml corresponding to 3.2×10^-4 g crown ether.

[3] = Complexing capability, cesium binding in dialysis hose
Experimental: The resulting solution was transferred to a hose for dialysis having a pore radius of approximately 1.5 nm.
After 12 hours samples taken from the liquid inside the dialysis hose and from the liquid outside the hose in the graduated glass, resp., were measured by means of a gamma counter operating at 0.66 MeV, to determine the ratio of the Cs concentration inside the dialysis hose to the Cs concentration outside the hose. On the basis of these determinations the corresponding amounts of Cs in the two liquids were calculated.

[4] = test system: foot-and-mouth desease virus, type C, Turup; parameters: species or system Turup; Guinea pigs; details: guinea pig, in vivo
[5] = test system: foot- and -mouth disease virus, type A; details: mouse, in vivo
[6] = Elimination of Cs^137 from blood of mice into urine; format: in vivo
Experimental: Tests were performed at Fors.o slashed.gsstation Ris.o slashed., Department of Health, Roskilde, Denmark, to investigate the ability of the dextran-crown ether compounds to remove radioactive cesium, Cs^137, from the blood of mice.
Three tests were run, each using five mice.
As basis solution for use as injection liquid or for use as basis for the preparation of such, an aqueous 0,9% sodium chloride solution was used containing Cs^137 in an amount corresponding to 3000 Bq/ml.
In each test the mice were kept in a cage, the bottom of which was a net below which a funnel was arranged for collecting the urine of the mice. After each collection of urine the bottom was flushed with water, and urine plus flushing water were collected and diluted with water to 20 ml before the radioactivity were determined by means of a Geiger counting apparatus.
By this test each mouse was injected with 0,1 ml af the basis solution and thus received 300 Bq Cs^137. The time for this injection, below designated to, was 11:30 .
After one hour each mouse was injected with 0,4 ml of a 6 w/v-% aqueous solution of the dextran-O-carbonylbenzo-18-crown-6-product produced according to Example 1, corresponding to 24 mg of this product per mouse.
Collection of urine with subsequent determination of radioactivity was initiated one hour and […], corresponding to 1.35 hours after to and was continued as it appears from Table I below.
47.81 hours after to a further injection of 0.5 ml of the 6%'s dextran-crown ether-solution was made on each mouse and the collection of urine and determination of radioactivity therein were continued.
At this test the injection solution was a mixture of 2 ml of the above mentioned Cs^137 -containing solution and 8 ml of the dextran-crown ether solution used in Test I.
Each mouse was injected with 0,5 ml of the mixture and thus received 300 Bq Cs^137 and 24 mg dextran-crown ether. Collection of urine and further crown ether injection (0,5 ml 6% solution) was made as in Test 1 as it appears from Table II below.
By this comparison test the injection solution was a mixture of 2 ml of the above mentioned basis solution containing 3000 Bq/ml Cs^137 and 8 ml aqueous 0,9% by weight NaCl-solution. Each mouse was injected using […] of the mixture and thus received 300 Bq Cs^137.

[7] = test system: foot-and-mouth desease virus, type A, Holland; parameters: species or system Holland; Guinea pigs; details: guinea pig, in vivo, sc
[8] = Complexing capability, diffusion test using a membrane cell; format: binding; details: aqueous, alcohol containing solution; relative to free crown ether
[9] = test system: Coccidia; details: poultry, admixed in the fodder; cited from earlier work
[10] = test system: Coccidia; details: tissue culture; J. Med. Chem. 1983, 26, 590-592; cited from earlier work
[11] = 0.08% solution, 0.4 ml, 3.2×10^-4 g crown ether

Molecule: T40-Dextran-O-carbonylbenzo-18-crown-6 [product A]
- time after which compound was excreted substantially completely in urine [1]: 3 to 5 h
- signs of illness ([2]; i.v., 1% solution, 0.4 ml): did not show any sign of illness

Molecule: c1ccc2c(c1)OCCOCCOCCOCCOCCO2 [benzo-18-crown-6]
- duration of heavy convulsions [2, 11]: approximately 15 minutes
- symptoms and survival [2, 11]: heavy convulsions appeared; also recorded: the animals survived
- reaction compared with product (B) ([2]; 3.2×10^-4 g pure compound versus product (B) containing 1.2×10^-4 g unbound): significantly heavier reaction
- death of animals ([2]; aqueous solution 0.8%, 0.4 ml, 32×10^-4 g crown ether): The animals died immediately before the injection was completed

Molecule: dextran-hydroxyethylbenzo-18-crown-6
- capability of catching and binding cesium ions [3]: substantial capability of catching and binding cesium ions
- Cs in liquid inside the hose ([3]; after 12 h): 658 µg
- Cs in liquid outside the hose ([3]; after 12 h): 1362 µg
- Cs conc. inside hose/Cs conc. outside hose ([3]; after 12 h, gamma counter): 1.2
- Cs conc. inside hose/Cs conc. outside hose ([3]; initially): 1
- Cs in liquid inside the hose ([3]; initially): 520 µg
- Cs in liquid outside the hose ([3]; initially): 1500 µg

Molecule: dextran-O-carbonylbenzo-18-crown-6 [dextran-crown ether]
- antiviral activity [4]: exhibited an antiviral activity at all three days
- effect on viral activity [5]: impedes the viral activity
- significance of titre difference versus virus control [5]: not significant
- radioactivity in urine + flushing water ([6]; Test 1, 1.35 hours after to, 24 mg per mouse given one hour after Cs^137): 6978 counts
- radioactivity in urine + flushing water ([6]; Test 1, 4.63 hours after new to (second injection)): 3533 counts
- radioactivity in urine + flushing water ([6]; Test 1, 4.83 hours after to): 3684 counts
- radioactivity in urine + flushing water ([6]; Test 1, 8.67 hours after new to (second injection)): 2937 counts
- radioactivity in urine + flushing water ([6]; Test 1, 8.88 hours after to): 8280 counts
- radioactivity in urine + flushing water ([6]; Test 1, 20.07 hours after to): 17001 counts
- radioactivity in urine + flushing water ([6]; Test 1, 22.28 hours after new to (second injection)): 6391 counts
- radioactivity in urine + flushing water ([6]; Test 1, 44.92 hours after to): 17368 counts
- radioactivity in urine + flushing water ([6]; Test 1, 47.78 hours after to): 2213 counts
- Counts, total (accumulated) ([6]; Test 1, time 1.35): 6978 counts
- Counts, total (accumulated) ([6]; Test 1, time 4.83): 10662 counts
- Counts, total (accumulated) ([6]; Test 1, time 20.07): 35943 counts
- Counts, total (accumulated) ([6]; Test 1, time 44.92): 53311 counts
- Counts, total (accumulated) ([6]; Test 1, time 47.78): 55524 counts
- Counts, total (accumulated) ([6]; Test 1, time 52.41): 59057 counts
- Counts, total (accumulated) ([6]; Test 1, time 56.45): 61994 counts
- Counts, total (accumulated) ([6]; Test 1, time 67.06): 68385 counts
- radioactivity in urine + flushing water ([6]; Test 2, 0.87 hours after to, 24 mg per mouse injected in mixture with Cs^137): 4498 counts
- radioactivity in urine + flushing water ([6]; Test 2, 4.33 hours after new to (second injection)): 3659 counts
- radioactivity in urine + flushing water ([6]; Test 2, 4.62 hours after to): 11634 counts
- radioactivity in urine + flushing water ([6]; Test 2, 8.40 hours after new to (second injection)): 3222 counts
- radioactivity in urine + flushing water ([6]; Test 2, 8.65 hours after to): 8566 counts
- radioactivity in urine + flushing water ([6]; Test 2, 19.82 hours after to): 16805 counts
- radioactivity in urine + flushing water ([6]; Test 2, 22.08 hours after new to (second injection)): 4966 counts
- radioactivity in urine + flushing water ([6]; Test 2, 44.65 hours after to): 12901 counts
- radioactivity in urine + flushing water ([6]; Test 2, 47.53 hours after to): 2728 counts
- Counts, total (accumulated) ([6]; Test 2, time 0.87): 4498 counts
- Counts, total (accumulated) ([6]; Test 2, time 8.65): 24698 counts
- Counts, total (accumulated) ([6]; Test 2, time 19.82): 41503 counts
- Counts, total (accumulated) ([6]; Test 2, time 44.65): 54411 counts
- Counts, total (accumulated) ([6]; Test 2, time 47.53): 57139 counts
- Counts, total (accumulated) ([6]; Test 2, time 51.86): 60798 counts
- Counts, total (accumulated) ([6]; Test 2, time 55.93): 64020 counts
- Counts, total (accumulated) ([6]; Test 2, time 69.53): 68986 counts
- speed of excretion of Cs^137 after the second injection ([6]; approximately 8 hours after second injection): somewhat increased speed of excretion
- more radioactive Cs excreted than in comparison Test 3 ([6]; approximately 70 hours, Tests 1 and 2 versus Test 3): approximately 17%
- speed of elimination of Cs^137 ([6]; first 5-8 hours after the first injection): significantly increased
- reduction of the number of blisters [7]: a reduction of the number of blisters was obtained
- capability of complexing metals, such as sodium ions [8]: has been maintained

Molecule: T40-Dextran-O-carbonylbenzo-18-crown-6 [product B]
- symptoms after injection ([2]; i.v., 10% solution, 0.4 ml): subdued after having received this dose and had bristled furs; also recorded: thereafter they did not shown any symptoms
- duration of being subdued with bristled furs ([2]; i.v., 10% solution, 0.4 ml, several animals): approximately 30 minutes

Molecule: c1ccc2c(c1)OCCOCCOCCOCCOc1ccccc1OCCOCCOCCOCCO2 [dibenzo-30-crown-10]
- in vivo anti-coccidial effect [9]: no in vivo effect was demonstrated
- anti-coccidial activity [10]: have an anti-coccocidal activity in tissue culture tests
